Results published in patent US20260022142A1, “MACROCYCLIC IMMUNOMODULATORS” (Bristol-Myers Squibb Company, priority 2022, published 2026).
Bridge positions count the residues as written; N and C are the ends. Square brackets hold non-standard residues; d marks the D form. Peptide text beside a SMILES is read from it. * marks the point of attachment. Tyr(3,5-F2) = N[C@@H](Cc1cc(F)c(O)c(F)c1)C(=O)O; Ala(morpholin-4-yl) = N[C@@H](CN1CCOCC1)C(=O)O; Bip = N[C@@H](Cc1ccc(-c2ccccc2)cc1)C(=O)O; Tyr(3-F) = N[C@@H](Cc1ccc(O)c(F)c1)C(=O)O; Phe(4-NH2) = Nc1ccc(C[C@H](N)C(=O)O)cc1; Phe(3-Me) = Cc1cccc(C[C@H](N)C(=O)O)c1; His(τ-Me) = Cn1cnc(C[C@H](N)C(=O)O)c1; His(π-Me) = Cn1cncc1C[C@H](N)C(=O)O; mTyr = N[C@@H](Cc1cccc(O)c1)C(=O)O; Cha = N[C@@H](CC1CCCCC1)C(=O)O; Cit = NC(=O)NCCC[C@H](N)C(=O)O; dCba = N[C@H](CC1CCC1)C(=O)O; Carboxymethyl = O=C(O)C*; Orn = NCCC[C@H](N)C(=O)O; Aun = NCCCCCCCCCCC(=O)O; Dab = NCC[C@H](N)C(=O)O; Dap = NC[C@H](N)C(=O)O; AEEA = NCCOCCOCC(=O)O

Biological target: T1, PD-1/PD-L1 interaction (PE-labeled human PD-L1-Ig binding to Jurkat cell line over-expressing human PD-1) (Homo sapiens, UniProt Q15116)
T1 construct: expressed in transfected cells; host or cells: Jurkat
Assay: Jurkat-PD-1 Cell Binding High-Content Screening Assay (CBA)
Assay type: cell-based
Details: Jurkat cell line over-expressing human PD-1; PE-labeled PD-L1-Ig 20 nM final; read-out: Jurkat hPD1-PDL1 IC50
Procedure, shortened: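 Binding of fluorescent PD-L1-Ig (phycoerythrin on Ig tag, 20 nM final, 1 h) measured by high-content imaging of fixed, Hoechst-counterstained Jurkat-hPD-1 cells. Compound added 2 h at 37° C beforehand, in DMEM with 10% fetal calf serum.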

T1 sequence (Q15116 25-288): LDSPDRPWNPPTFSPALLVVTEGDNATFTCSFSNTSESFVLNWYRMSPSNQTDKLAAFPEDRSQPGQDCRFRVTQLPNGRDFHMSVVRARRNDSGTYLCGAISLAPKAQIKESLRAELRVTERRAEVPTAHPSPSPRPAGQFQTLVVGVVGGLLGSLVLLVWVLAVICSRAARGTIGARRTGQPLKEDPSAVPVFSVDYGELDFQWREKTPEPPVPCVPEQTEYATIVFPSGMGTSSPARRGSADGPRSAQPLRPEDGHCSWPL

Question: `Cc1cccc(C[C@@H]2NC(=O)[C@H](CC(=O)O)NC(=O)[C@H](Cc3ccc(OCC(=O)O)cc3)NC(=O)[C@H](CN)NC(=O)CSC[C@@H](C(=O)N[C@@H](CCN)C(=O)NCCCCCCCCCCC(=O)O)NC(=O)[C@H](CCCCN)NC(=O)[C@H](C(C)C)NC(=O)[C@H](CC3CCCCC3)NC(=O)[C@H](CCN)NC(=O)[C@@H](CC3CCC3)NC(=O)[C@H](CCCN)NC(=O)[C@H](C(C)C)NC(=O)[C@H](Cc3ccc(-c4ccccc4)cc3)NC(=O)[C@H](C(C)C)NC2=O)c1` [Compound 2027] ({CH2CO}-[Dap]Y(Carboxymethyl)D[Phe(3-Me)]V[Bip]V[Orn][dCba][Dab][Cha]VKC[Dab][Aun]-OH; thioether N-14) was tested. Which IC50 did it give?
Answer: Its IC50 is 15 nM.

Question: Which IC50 does the source give for `CC(C)C[C@H]1NC(=O)[C@H](CCCN)NC(=O)[C@H](C(C)C)NC(=O)[C@H](Cc2ccc(-c3ccccc3)cc2)NC(=O)[C@H](C(C)C)NC(=O)[C@H](Cc2ccc(N)cc2)NC(=O)[C@H](CC(=O)O)NC(=O)[C@H](Cc2ccc(OCC(=O)O)cc2)NC(=O)[C@H](CN)NC(=O)CSC[C@@H](C(=O)N[C@@H](CCN)C(=O)NCCCCCCCCCCC(=O)O)NC(=O)[C@H](CCCCN)NC(=O)[C@H](C(C)C)NC(=O)[C@H](CC2CCCCC2)NC(=O)[C@H](CCN)NC1=O` [Compound 2028] ({CH2CO}-[Dap]Y(Carboxymethyl)D[Phe(4-NH2)]V[Bip]V[Orn][dL][Dab][Cha]VKC[Dab][Aun]-OH; thioether N-14) here?
Answer: Its IC50 is 13.7 nM.

Question: `CC(C)C[C@H]1NC(=O)[C@H](CCCN)NC(=O)[C@H](C(C)C)NC(=O)[C@H](Cc2ccc(-c3ccccc3)cc2)NC(=O)[C@H](C(C)C)NC(=O)[C@H](Cc2cccc(O)c2)NC(=O)[C@H](CC(=O)O)NC(=O)[C@H](Cc2ccc(OCC(=O)O)cc2)NC(=O)[C@H](CN)NC(=O)CSC[C@@H](C(=O)N[C@@H](CCN)C(=O)NCCCCCCCCCCC(=O)O)NC(=O)[C@H](CCCCN)NC(=O)[C@H](C(C)C)NC(=O)[C@H](CC2CCCCC2)NC(=O)[C@H](CCN)NC1=O` [Compound 2029] ({CH2CO}-[Dap]Y(Carboxymethyl)D[mTyr]V[Bip]V[Orn][dL][Dab][Cha]VKC[Dab][Aun]-OH; thioether N-14) was tested. Which IC50 did it give?
Answer: Its IC50 is 8 nM.

Question: How did the IC50 turn out when `CC(C)C[C@H]1NC(=O)[C@H](CCCN)NC(=O)[C@H](C(C)C)NC(=O)[C@H](Cc2ccc(-c3ccccc3)cc2)NC(=O)[C@H](C(C)C)NC(=O)[C@H](Cc2ccc(O)c(F)c2)NC(=O)[C@H](CC(=O)O)NC(=O)[C@H](Cc2ccc(OCC(=O)O)cc2)NC(=O)[C@H](CN)NC(=O)CSC[C@@H](C(=O)N[C@@H](CCN)C(=O)NCCCCCCCCCCC(=O)O)NC(=O)[C@H](CCCCN)NC(=O)[C@H](C(C)C)NC(=O)[C@H](CC2CCCCC2)NC(=O)[C@H](CCN)NC1=O` [Compound 2030] ({CH2CO}-[Dap]Y(Carboxymethyl)D[Tyr(3-F)]V[Bip]V[Orn][dL][Dab][Cha]VKC[Dab][Aun]-OH; thioether N-14) was run?
Answer: Its IC50 is 7.2 nM.

Question: Which IC50 does the source give for `CC(C)C[C@H]1NC(=O)[C@H](CCCN)NC(=O)[C@H](C(C)C)NC(=O)[C@H](Cc2ccc(-c3ccccc3)cc2)NC(=O)[C@H](C(C)C)NC(=O)[C@H](Cc2cc(F)c(O)c(F)c2)NC(=O)[C@H](CC(=O)O)NC(=O)[C@H](Cc2ccc(OCC(=O)O)cc2)NC(=O)[C@H](CN)NC(=O)CSC[C@@H](C(=O)N[C@@H](CCN)C(=O)NCCCCCCCCCCC(=O)O)NC(=O)[C@H](CCCCN)NC(=O)[C@H](C(C)C)NC(=O)[C@H](CC2CCCCC2)NC(=O)[C@H](CCN)NC1=O` [Compound 2032] ({CH2CO}-[Dap]Y(Carboxymethyl)D[Tyr(3,5-F2)]V[Bip]V[Orn][dL][Dab][Cha]VKC[Dab][Aun]-OH; thioether N-14) here?
Answer: Its IC50 is 147 nM.

Question: For `CC(C)C[C@H]1NC(=O)[C@H](CCCN)NC(=O)[C@H](C(C)C)NC(=O)[C@H](Cc2ccc(-c3ccccc3)cc2)NC(=O)[C@H](C(C)C)NC(=O)[C@H](Cc2ccc(O)cc2)NC(=O)[C@H](CC(=O)O)NC(=O)[C@H](Cc2ccc(OCC(=O)O)cc2)NC(=O)[C@H](CN)NC(=O)CSC[C@@H](C(=O)N[C@@H](CCN)C(=O)NCCCCCCCCCCC(=O)O)NC(=O)[C@H](CCCCN)NC(=O)[C@H](C(C)C)NC(=O)[C@H](CC2CCCCC2)NC(=O)[C@H](CCN)NC1=O` [Compound 2033] ({CH2CO}-[Dap]Y(Carboxymethyl)DYV[Bip]V[Orn][dL][Dab][Cha]VKC[Dab][Aun]-OH; thioether N-14), which IC50 is on record?
Answer: The IC50 was 29.2 nM.

Question: Which IC50 does the source give for `Cc1cccc(C[C@@H]2NC(=O)[C@H](CC(=O)O)NC(=O)[C@H](Cc3ccc(OCC(=O)O)cc3)NC(=O)[C@H](Cc3cncn3C)NC(=O)CSC[C@@H](C(=O)N[C@@H](CCN)C(=O)NCCCCCCCCCCC(=O)O)NC(=O)[C@H]([C@@H](C)O)NC(=O)[C@H](C(C)C)NC(=O)[C@H](CC3CCCCC3)NC(=O)[C@H](CCN)NC(=O)[C@@H](CC(C)C)NC(=O)[C@H](CCCN)NC(=O)[C@H](CCCNC(N)=O)NC(=O)[C@H](Cc3ccc(-c4ccccc4)cc3)NC(=O)[C@H](C(C)C)NC2=O)c1` [Compound 2034] ({CH2CO}-[His(π-Me)]Y(Carboxymethyl)D[Phe(3-Me)]V[Bip][Cit][Orn][dL][Dab][Cha]VTC[Dab][Aun]-OH; thioether N-14) here?
Answer: The IC50 was 15.5 nM.

Question: How did the IC50 turn out when `Cc1cccc(C[C@@H]2NC(=O)[C@H](CC(=O)O)NC(=O)[C@H](Cc3ccc(OCC(=O)O)cc3)NC(=O)[C@H](Cc3cncn3C)NC(=O)CSC[C@@H](C(=O)N[C@@H](CCN)C(=O)NCCCCCCCCCCC(=O)O)NC(=O)[C@H](CCCCN)NC(=O)[C@H](C(C)C)NC(=O)[C@H](CC3CCCCC3)NC(=O)[C@H](CCN)NC(=O)[C@@H](CC(C)C)NC(=O)[C@H](CCCN)NC(=O)[C@H](C(C)C)NC(=O)[C@H](Cc3ccc(-c4ccccc4)cc3)NC(=O)[C@H](C(C)C)NC2=O)c1` [Compound 2035] ({CH2CO}-[His(π-Me)]Y(Carboxymethyl)D[Phe(3-Me)]V[Bip]V[Orn][dL][Dab][Cha]VKC[Dab][Aun]-OH; thioether N-14) was run?
Answer: The IC50 was 14.5 nM.

Question: For `Cc1cccc(C[C@@H]2NC(=O)[C@H](CC(=O)O)NC(=O)[C@H](Cc3ccc(OCC(=O)O)cc3)NC(=O)[C@H](Cc3cn(C)cn3)NC(=O)CSC[C@@H](C(=O)N[C@@H](CCN)C(=O)NCCCCCCCCCCC(=O)O)NC(=O)[C@H]([C@@H](C)O)NC(=O)[C@H](C(C)C)NC(=O)[C@H](CC3CCCCC3)NC(=O)[C@H](CCN)NC(=O)[C@@H](CC(C)C)NC(=O)[C@H](CCCN)NC(=O)[C@H](CCCNC(N)=O)NC(=O)[C@H](Cc3ccc(-c4ccccc4)cc3)NC(=O)[C@H](C(C)C)NC2=O)c1` [Compound 2036] ({CH2CO}-[His(τ-Me)]Y(Carboxymethyl)D[Phe(3-Me)]V[Bip][Cit][Orn][dL][Dab][Cha]VTC[Dab][Aun]-OH; thioether N-14), which IC50 is on record?
Answer: The IC50 was 14.4 nM.

Question: How did the IC50 turn out when `Cc1cccc(C[C@@H]2NC(=O)[C@H](CC(=O)O)NC(=O)[C@H](Cc3ccc(OCC(=O)O)cc3)NC(=O)[C@H](Cc3cn(C)cn3)NC(=O)CSC[C@@H](C(=O)N[C@@H](CCN)C(=O)NCCCCCCCCCCC(=O)O)NC(=O)[C@H](CCCCN)NC(=O)[C@H](C(C)C)NC(=O)[C@H](CC3CCCCC3)NC(=O)[C@H](CCN)NC(=O)[C@@H](CC(C)C)NC(=O)[C@H](CCCN)NC(=O)[C@H](C(C)C)NC(=O)[C@H](Cc3ccc(-c4ccccc4)cc3)NC(=O)[C@H](C(C)C)NC2=O)c1` [Compound 2037] ({CH2CO}-[His(τ-Me)]Y(Carboxymethyl)D[Phe(3-Me)]V[Bip]V[Orn][dL][Dab][Cha]VKC[Dab][Aun]-OH; thioether N-14) was run?
Answer: Its IC50 is 16.9 nM.

Question: For `Cc1cccc(C[C@@H]2NC(=O)[C@H](CC(=O)O)NC(=O)[C@H](Cc3ccc(OCC(=O)O)cc3)NC(=O)[C@H](CN3CCOCC3)NC(=O)CSC[C@@H](C(=O)N[C@@H](CCN)C(=O)NCCCCCCCCCCC(=O)O)NC(=O)[C@H]([C@@H](C)O)NC(=O)[C@H](C(C)C)NC(=O)[C@H](CC3CCCCC3)NC(=O)[C@H](CCN)NC(=O)[C@@H](CC(C)C)NC(=O)[C@H](CCCN)NC(=O)[C@H](CCCNC(N)=O)NC(=O)[C@H](Cc3ccc(-c4ccccc4)cc3)NC(=O)[C@H](C(C)C)NC2=O)c1` [Compound 2038] ({CH2CO}-[Ala(morpholin-4-yl)]Y(Carboxymethyl)D[Phe(3-Me)]V[Bip][Cit][Orn][dL][Dab][Cha]VTC[Dab][Aun]-OH; thioether N-14), which IC50 is on record?
Answer: The IC50 was 38.7 nM.

Question: `Cc1cccc(C[C@@H]2NC(=O)[C@H](CC(=O)O)NC(=O)[C@H](Cc3ccc(OCC(=O)O)cc3)NC(=O)[C@H](CN3CCOCC3)NC(=O)CSC[C@@H](C(=O)N[C@@H](CCN)C(=O)NCCCCCCCCCCC(=O)O)NC(=O)[C@H](CCCCN)NC(=O)[C@H](C(C)C)NC(=O)[C@H](CC3CCCCC3)NC(=O)[C@H](CCN)NC(=O)[C@@H](CC(C)C)NC(=O)[C@H](CCCN)NC(=O)[C@H](C(C)C)NC(=O)[C@H](Cc3ccc(-c4ccccc4)cc3)NC(=O)[C@H](C(C)C)NC2=O)c1` [Compound 2039] ({CH2CO}-[Ala(morpholin-4-yl)]Y(Carboxymethyl)D[Phe(3-Me)]V[Bip]V[Orn][dL][Dab][Cha]VKC[Dab][Aun]-OH; thioether N-14) was tested. Which IC50 did it give?
Answer: Its IC50 is 19.4 nM.

Question: For `Cc1cccc(C[C@@H]2NC(=O)[C@H](CC(=O)O)NC(=O)[C@H](Cc3ccc(OCC(=O)O)cc3)NC(=O)[C@H](CN)NC(=O)CSC[C@@H](C(=O)N[C@@H](CCN)C(=O)NCCOCCOCC(=O)NCCCCCCCCCCC(=O)O)NC(=O)[C@H](CCCN)NC(=O)[C@H](C(C)C)NC(=O)[C@H](CC3CCCCC3)NC(=O)[C@H](CCN)NC(=O)[C@@H](CC(C)C)NC(=O)[C@H](CCCN)NC(=O)[C@H](Cc3ccccc3)NC(=O)[C@H](Cc3ccc(-c4ccccc4)cc3)NC(=O)[C@H](Cc3ccc(O)cc3)NC2=O)c1` [Compound 2041] ({CH2CO}-[Dap]Y(Carboxymethyl)D[Phe(3-Me)]Y[Bip]F[Orn][dL][Dab][Cha]V[Orn]C[Dab][AEEA][Aun]-OH; thioether N-14), which IC50 is on record?
Answer: Its IC50 is 8.2 nM.
